From patent publication US10369123B2, “Perk activator for the treatment of neurodegenerative diseases” (DEUTSCHES ZENTRUM FÜR NEURODEGENERATIVE ERKRANKUNGEN E.V. …, priority 2014, dated 2019)

Columns and labels:
[1] = target: T1, PERK (Homo sapiens, UniProt Q9NZJ5); assay: Western blot for pEIF2A and pNRF2, lentiviral 3R/4R-tau overexpression model; assay type: cell-based; set-up: endogenous in cells; host or cells: LUHMES neurons (differentiated, human); in A5 transduced with lentivirus for 3R-/4R-tau or mCherry, not for PERK; conditions: for pNRF2 level: 4R-tau overexpressing cells, PERK activator 200 nM or PERK inhibitor 300 nM; for effect on pEIF2A and pNRF2: lentiviral 3R-tau overexpression
T1 sequence (Q9NZJ5 30-1116): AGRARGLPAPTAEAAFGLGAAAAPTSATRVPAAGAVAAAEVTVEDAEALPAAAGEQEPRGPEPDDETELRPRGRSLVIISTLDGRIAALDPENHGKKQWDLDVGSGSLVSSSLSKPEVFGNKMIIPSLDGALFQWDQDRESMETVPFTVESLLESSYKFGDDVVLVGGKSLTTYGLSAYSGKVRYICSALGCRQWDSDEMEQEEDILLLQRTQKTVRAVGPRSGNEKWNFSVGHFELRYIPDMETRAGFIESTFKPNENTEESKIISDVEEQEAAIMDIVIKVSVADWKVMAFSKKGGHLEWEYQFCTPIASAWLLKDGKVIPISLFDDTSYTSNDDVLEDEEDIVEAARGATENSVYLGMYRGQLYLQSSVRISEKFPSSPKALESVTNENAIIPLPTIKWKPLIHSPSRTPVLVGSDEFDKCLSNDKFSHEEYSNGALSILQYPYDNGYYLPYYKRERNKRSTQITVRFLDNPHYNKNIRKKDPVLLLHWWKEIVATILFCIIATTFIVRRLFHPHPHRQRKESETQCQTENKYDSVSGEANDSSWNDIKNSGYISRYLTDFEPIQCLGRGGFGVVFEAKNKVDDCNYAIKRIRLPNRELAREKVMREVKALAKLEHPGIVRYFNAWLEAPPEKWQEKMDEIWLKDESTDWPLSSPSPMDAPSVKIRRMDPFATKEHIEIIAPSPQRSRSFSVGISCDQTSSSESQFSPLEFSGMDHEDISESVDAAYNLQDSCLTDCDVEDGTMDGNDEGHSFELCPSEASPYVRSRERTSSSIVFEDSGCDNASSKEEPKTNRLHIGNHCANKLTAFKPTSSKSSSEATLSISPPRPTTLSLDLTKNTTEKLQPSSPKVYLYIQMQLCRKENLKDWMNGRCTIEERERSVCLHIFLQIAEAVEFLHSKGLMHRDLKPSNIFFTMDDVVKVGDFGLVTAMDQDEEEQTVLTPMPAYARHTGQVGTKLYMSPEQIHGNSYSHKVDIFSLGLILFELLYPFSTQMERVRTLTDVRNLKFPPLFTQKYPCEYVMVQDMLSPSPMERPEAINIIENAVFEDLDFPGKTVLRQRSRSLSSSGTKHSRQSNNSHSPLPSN

[2] = target: T1, PERK; assay: Western blot for pEIF2A and pNRF2, annonacin model of tauopathy; assay type: cell-based; set-up: endogenous in cells; host or cells: LUHMES neurons (differentiated, human); in A5 transduced with lentivirus for 3R-/4R-tau or mCherry, not for PERK; conditions: in the presence of 25 nM annonacin, 48 h
Procedure: Nunc™ Nunclon™ Delta 6-well (for protein and mRNA) or 48-well (for cell assays) plates (Thermo Fisher Scientific, Waltham, Mass., USA) were coated with 100 μg/ml poly-L-lysine (Sigma-Aldrich, St. Louis, Mo., USA) and 5 μg/ml fibronectin (Sigma-Aldrich). LUHMES (Lund Human Mesencephalic) cells, derived from human embryonic ventral mesencephalic cells by conditional immortalization (Tet-off v-myc over-expression) were seeded out in a concentration of 130,000 cells/cm^2 to achieve a confluence of 50%. They were then differentiated for 8 days in a medium of DMEM/F12 (Sigma-Aldrich), 1 μg/ml tetracycline, […] and 490 μg/ml dbcAMP into post-mitotic neurons with a dopaminergic phenotype (Lotharius et al. 2005). […]
(§1) Protein was extracted by scraping the cells from the culture plate with Mammalian Protein Extraction Reagent (M-PER, Thermo Fisher Scientific) and 1× cOmplete Protease Inhibitor Cocktail Tablets (Hoffmann-La Roche, Basel, Switzerland) and 1× PhosSTOP Phosphatase Inhibitor Cocktail Tablets (Hoffmann-La Roche). […] Protein concentrations were determined using the BCA kit (Thermo Fisher Scientific) by heating the samples at 60° C. for 30 min and measuring the absorption on the NanoDrop 2000c Spectrophotometer (Thermo Fisher Scientific). […]

[3] = system: tau; assay: Western blot of tau phosphorylation, 4R-tau overexpression model; assay type: cell-based, human; conditions: 4R-tau overexpressing lentivirus 8 days + PERK activator
Procedure: Nunc™ Nunclon™ Delta 6-well (for protein and mRNA) or 48-well (for cell assays) plates (Thermo Fisher Scientific, Waltham, Mass., USA) were coated with 100 μg/ml poly-L-lysine (Sigma-Aldrich, St. Louis, Mo., USA) and 5 μg/ml fibronectin (Sigma-Aldrich). LUHMES (Lund Human Mesencephalic) cells, derived from human embryonic ventral mesencephalic cells by conditional immortalization (Tet-off v-myc over-expression) were seeded out in a concentration of 130,000 cells/cm^2 to achieve a confluence of 50%. They were then differentiated for 8 days in a medium of DMEM/F12 (Sigma-Aldrich), 1 μg/ml tetracycline, […] and 490 μg/ml dbcAMP into post-mitotic neurons with a dopaminergic phenotype (Lotharius et al. 2005).
For all experiments with annonacin, the medium was replaced during the intoxication period with new medium containing glucose levels reduced to 250 μM, i.e. the physiological concentration in the human brain.
Concentrated lentiviral particles were titrated by transducing LUHMES cells with different dilutions at 6 hours after initiating differentiation. The lowest dilution at which at least 90% of cells expressed the transgene (as determined by immunohistochemistry of the cells fixed on day 2 post differentiation) was chosen for subsequent experiments. For these, concentrated lentiviral particles were again added into the medium on day 0, 6 hours after initiating differentiation.
as §1, with “Roche). For pNRF2 blots, cells were extracted with 2% SDS tris-buffer instead of M-PER in order to obtain whole cell extracts and not to lose the nuclear fraction.” for “Roche).”

Compound | pNRF2 level [1] | pEIF2A level ([1]; 4R-tau overexpression, PERK inhibitor 300 nM) | effect on pEIF2A and pNRF2 [1] | pEIF2A level ([2]; PERK inhibitor 300 nM) | AD2-positive tau [3] | CP13 (Ser-202) phosphorylated tau [3] | HT7-positive tau [3] | pEIF2A level ([1]; lentiviral 3R or 4R-tau overexpression, PERK activator 200 nM) | pNRF2 level ([2]; PERK activator 200 nM)
Cn1cc(-c2ccc3c(c2)CCN3C(=O)Cc2cccc(C(F)(F)F)c2)c2c(N)ncnc21 [GSK2606414, reference compound] | not pNRF2 | decreased | no significant effect | reduced pEIF2A levels significantly |  |  |  |  | 
CCN(CC)CCC(=O)N1N=C(c2c(-c3ccccc3)c3cc(Br)ccc3[nH]c2=O)CC1c1ccc(Br)cc1 (centres unmarked) [CCT020312, 6-bromo-3-[5-(4-bromo-phenyl)-1-(3-diethylamino-propionyl)-4,5-dihydro-1H-pyrazol-3-yl]-4-phenyl-1H-quinolin-2-one] | significantly increased |  | no significant effect |  | not altered | significantly reduced | not altered | did not increase | increased only pNRF2 significantly
